Measurements: ChEMBL document CHEMBL3244112, “Dipeptides of O-methyl-L-threonine as potential antimalarials” (J Med Chem, 1979)
Active and inactive are the calls of the source. The rule behind the calls is not given here. Peptide text beside a SMILES is read from it.

Assays:
Plasmodium berghei [1] = test: Antimalarial activity against Plasmodium berghei infected in mouse assessed as increase of survival time of host at 160 to 640 mg/kg; type: functional, organism-based
Mus musculus = test: Toxicity in Plasmodium berghei infected mouse at <640 mg/kg; type: organism-based; settings: in vivo
Plasmodium berghei [2] = test: Antimalarial activity against Plasmodium berghei infected in mouse assessed as increase of survival time of host at 640 mg/kg; type: functional, organism-based; parameters: dose 640 mg/kg
Plasmodium berghei [3] = test: Antimalarial activity against Plasmodium berghei infected in mouse assessed as increase of survival time of host; type: functional, organism-based

Compound	Activity (Plasmodium berghei [1])	Activity (Mus musculus)	Activity (Plasmodium berghei [2])	Activity (Plasmodium berghei [3])
CO[C@H](C)[C@H](N)C(=O)O	Active	–	–	–
CO[C@H](C)[C@H](NC(=O)[C@@H](N)CC(C)C)C(=O)O (H-Leu-Thr(Me)-OH)	–	Non-toxic	inactive	–
CO[C@H](C)[C@H](N)C(=O)N[C@@H](CC(C)C)C(=O)O (H-Thr(Me)-Leu-OH)	–	Non-toxic	inactive	–
CO[C@H](C)[C@H](N)C(=O)N[C@H](C(=O)O)[C@@H](C)OC (H-Thr(Me)-Thr(Me)-OH)	–	–	Active	Active
CC(C)C[C@H](N)C(=O)O [LEUCINE]	–	Non-toxic	inactive	–
